Legend:
[1] = molecular target: CDK9 (Homo sapiens (Human), UniProt P50750); test: In vitro kinase inhibition, KinaseProfiler service of Millipore, residual activity; format: biochemical; conditions: for CDK9 10 nM (RA in %) / remaining activity at 0.01 µM: residual activity at 10 nM compound; for CDK9 100 nM (RA in %) / remaining activity at 0.1 µM: residual activity at 100 nM compound; for remaining activity at 0.01 µM: read-out: CDK9 10 nM (RA in %); for remaining activity at 0.1 µM: read-out: CDK9 100 nM (RA in %)
Text: In vitro kinase assay analysis may be performed using standard techniques described in the art. These techniques are also used by commercial services providers in order to offer in vitro kinase activity assay services, e.g. the assays offered by Millipore Inc. (worldwide website www(dot)millipore.com), ProQinase GmbH (worldwide website www(dot)proqinase.de) and others.
In vitro kinase inhibition results shown in columns 7 to 9 in Table 1 were obtained by employing the KinaseProfiler™ service of Millipore and used to select compounds displaying specificity for CDK9. Specifically, it was intended to distinguish the CDK9-specific compounds from other compounds having significant inhibitory potency also with regard to other CDKs.

[2] = system: TNF-alpha inducible reporter gene; test: Inhibition of TNF-alpha-induced reporter gene expression (luciferase) in HeLa-derived cell line; format: cell-based, human; conditions: remaining luciferase activity in presence of 3 μM of compound as ratio of DMSO-treated cells, TNF-alpha 50 ng/ml; for activity at 3 µM: Homo sapiens, 6 h, read-out: Efficacy (ratio to DMSO) TNF-alpha induced response; for Efficacy (ratio to DMSO) TNF-alpha induced response: 6 hours
Text: TNF-alpha responsive cell lines like the human HeLa cell line can be used to study cellular responses to TNF-alpha, e.g. transcriptional regulation of a transfected TNF-alpha responsive reporter gene, and effects of kinase inhibitors on this response.
In order to analyse compound effects on TNF-alpha mediated transcriptional response, a HeLa-derived cell line stably transfected with a TNF-alpha inducible reporter gene was used (Panomics Catalog No. RC0013). The cell line was obtained by co-transfection of a luciferase reporter gene (Panomics P/N LR0051) and pHyg into human cervical epithelial HeLa cells, followed by hygromycin selection. TNFα-induced luciferase activity was used to select clones from the hygromycin-resistant cells. The cell line was maintained and stimulated according to the manufacturer's instructions. Briefly, cells were seeded at 5×10^5/well in 1 ml of growth medium in a 12-well plate and incubated in a humidified incubator at 37° C. and 5% CO2 for 24 hours. Medium was replaced with 1 ml of serum free medium and compounds were added up to concentrations of […]. After 1 hour of incubation, TNF-alpha was added to achieve a final concentration of 50 ng/ml. The culture dish was further incubated in a humidified incubator at 37° C. and 5% CO2 for 6 hours, medium was removed and 100 μL of lysis buffer were added to each well and the assay for luciferase activity was performed according to assay manufacturer's (Promega P/N E1500) recommendations. For more information about this cell line, go to worldwide website www(dot)panomics.com.
Compound effects on TNF-alpha-induced reporter gene expression is shown in column 6 in Table 1 given below. Indicated is the remaining luciferase activity after incubation in presence of 3 μM of compound as a ratio of the activity of DMSO-treated cells without compound. Specifically, it was intended to distinguish cell permeable compounds from other compounds having significant inhibitory potency with regard to other CDKs, but fail to penetrate cells or are unstable under the conditions of the experiment.

CDK9, sequence (P50750 whole entry): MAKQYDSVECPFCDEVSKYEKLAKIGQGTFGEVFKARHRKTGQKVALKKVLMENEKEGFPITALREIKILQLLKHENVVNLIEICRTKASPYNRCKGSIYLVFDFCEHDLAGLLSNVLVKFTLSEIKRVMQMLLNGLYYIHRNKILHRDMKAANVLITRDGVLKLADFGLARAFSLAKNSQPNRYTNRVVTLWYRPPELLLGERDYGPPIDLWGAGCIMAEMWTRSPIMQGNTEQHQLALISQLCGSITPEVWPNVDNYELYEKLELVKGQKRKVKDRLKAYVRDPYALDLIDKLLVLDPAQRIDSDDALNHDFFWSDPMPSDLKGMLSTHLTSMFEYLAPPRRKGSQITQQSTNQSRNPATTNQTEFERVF
CDK9, sequence (O60563 whole entry partner): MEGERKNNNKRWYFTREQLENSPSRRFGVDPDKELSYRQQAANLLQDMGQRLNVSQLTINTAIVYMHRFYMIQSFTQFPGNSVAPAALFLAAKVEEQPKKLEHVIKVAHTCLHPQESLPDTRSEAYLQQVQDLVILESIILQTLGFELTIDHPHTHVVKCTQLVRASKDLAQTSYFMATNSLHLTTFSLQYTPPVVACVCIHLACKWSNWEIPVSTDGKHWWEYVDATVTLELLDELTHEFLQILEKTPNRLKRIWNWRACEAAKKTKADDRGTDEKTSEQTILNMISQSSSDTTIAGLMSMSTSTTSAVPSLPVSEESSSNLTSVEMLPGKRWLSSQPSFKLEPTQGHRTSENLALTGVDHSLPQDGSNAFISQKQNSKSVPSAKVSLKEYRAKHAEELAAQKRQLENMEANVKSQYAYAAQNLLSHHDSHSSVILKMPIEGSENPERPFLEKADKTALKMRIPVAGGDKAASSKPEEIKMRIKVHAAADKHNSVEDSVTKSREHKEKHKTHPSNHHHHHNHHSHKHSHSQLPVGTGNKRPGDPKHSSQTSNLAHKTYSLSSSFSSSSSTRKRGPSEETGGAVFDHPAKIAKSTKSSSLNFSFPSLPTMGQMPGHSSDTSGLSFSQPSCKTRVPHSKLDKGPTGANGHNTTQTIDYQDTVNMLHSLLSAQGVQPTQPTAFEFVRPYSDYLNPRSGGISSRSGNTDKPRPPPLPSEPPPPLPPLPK

Row | SMILES | CDK9 10 nM (RA in %) [1] [%] | CDK9 100 nM (RA in %) [1] [%] | activity at 3 µM [2] [%] | remaining activity at 0.01 µM [1] [%] | remaining activity at 0.1 µM [1] [%] | Efficacy (ratio to DMSO) TNF-alpha induced response [2]
1 | COc1cc(F)ccc1-c1ccnc(NC(=O)[C@H]2CCC[C@H](NC(C)=O)C2)c1 (relative stereo) [Example 25, trans-3-Acetamido-N-(4-(4-fluoro-2-methoxyphenyl)-pyridin-2-yl)cyclohexanecarboxamide] | 99 | 78 | – | – | – | –
2 | COc1cc(F)ccc1-c1ccnc(NC(=O)[C@H]2CCC[C@H](NC(C)=O)C2)c1 (relative stereo) [Example 26, trans-3-Acetamido-N-(4-(4-fluoro-2-methoxyphenyl)-pyridin-2-yl)cyclohexanecarboxamide] | 33 | 5 | – | – | – | –
3 | COc1cc(F)ccc1-c1ccnc(NC(=O)[C@@H](C)c2cccnc2)c1 (stereo in doubt) [Example 12, N-(4-(4-Fluoro-2-methoxyphenyl)pyridin-2-yl)-2-(pyridin-3-yl)propanamide] | – | – | 83 | 94 | 96 | –
4 | COc1cc(F)ccc1-c1ccnc(NC(=O)C2CCCCC2)c1 [Example 1, N-(4-(4-Fluoro-2-methoxyphenyl)pyridin-2-yl)cyclohexanecarboxamide] | – | – | 23 | 88 | 23 | –
5 | COc1cc(F)ccc1-c1ccnc(NC(=O)CC2CCCCC2)c1 [Example 2, 2-Cyclohexyl-N-(4-(4-fluoro-2-methoxyphenyl)pyridin-2-yl)acetamide] | – | – | 49 | 78 | 33 | –
6 | COc1cc(F)ccc1-c1ccnc(NC(=O)C2CCNCC2)c1 [Example 3, N-(4-(4-Fluoro-2-methoxyphenyl)pyridin-2-yl)piperidine-4-carboxamide] | – | – | 5 | 86 | 9 | –
7 | COc1cc(F)ccc1-c1ccnc(NC(=O)[C@H]2CC[C@@H](N)CC2)c1 [Example 4, cis-4-Amino-N-(4-(4-fluoro-2-methoxyphenyl)pyridin-2-yl)cyclohexane-carboxamide] | – | – | 5 | 59 | 4 | –
8 | COc1cc(F)ccc1-c1ccnc(NC(=O)C2CNC(=O)C2)c1 (stereo not shown) [Example 5, N-(4-(4-Fluoro-2-methoxyphenyl)pyridin-2-yl)-5-oxopyrrolidine-3-carboxamide] | – | – | 4 | 46 | 5 | –
9 | COc1ccc(CC(=O)Nc2cc(-c3ccc(F)cc3OC)ccn2)cc1 [Example 6, N-(4-(4-Fluoro-2-methoxyphenyl)pyridin-2-yl)-2-(4-methoxyphenyl)-acetamide] | – | – | 7 | 68 | 16 | –
10 | COc1cc(F)ccc1-c1ccnc(NC(=O)Cc2ccccc2)c1 [Example 7, N-(4-(4-Fluoro-2-methoxyphenyl)pyridin-2-yl)-2-phenylacetamide] | – | – | 8 | 78 | 17 | –
11 | COc1cc(F)ccc1-c1ccnc(NC(=O)Cc2ccncc2)c1 [Example 8, N-(4-(4-Fluoro-2-methoxyphenyl)pyridin-2-yl)-2-(pyridin-4-yl)acetamide] | – | – | 4 | 93 | 7 | –
12 | COc1cc(F)ccc1-c1ccnc(NC(=O)Cc2cccs2)c1 [Example 9, N-(4-(4-Fluoro-2-methoxyphenyl)pyridin-2-yl)-2-(thiophen-2-yl)acetamide] | – | – | 4 | 76 | 16 | –
13 | COc1ccc(F)cc1-c1ccnc(NC(=O)[C@@H](C)c2ccccc2)c1 [Example 10, (2S)—N-(4-(5-Fluoro-2-methoxyphenyl)pyridin-2-yl)-2-phenylpropanamide] | – | – | 10 | 68 | 10 | –
14 | COc1ccc([C@H](C)C(=O)Nc2cc(-c3ccc(F)cc3OC)ccn2)cc1 [Example 11, (2S)—N-(4-(4-Fluoro-2-methoxyphenyl)pyridin-2-yl)-2-(4-methoxyphenyl)-propanamide] | – | – | 7 | 36 | 6 | –
15 | COc1cc(F)ccc1-c1ccnc(NC(=O)C(C)c2cccnc2)c1 (stereo not shown) [Example 13, N-(4-(4-Fluoro-2-methoxyphenyl)pyridin-2-yl)-2-(pyridin-3-yl)propanamide] | – | – | 4 | 66 | 2 | –
16 | COc1ccc(CC(=O)Nc2cc(-c3ccc(F)cc3OC)ccn2)cn1 [Example 14, N-(4-(4-Fluoro-2-methoxyphenyl)pyridin-2-yl)-2-(6-methoxypyridin-3-yl)acetamide] | – | – | 4 | 25 | 7 | –
17 | COc1cc(F)ccc1-c1ccnc(NC(=O)C(C)c2ccncc2)c1 (stereo not shown) [Example 15, N-(4-(4-Fluoro-2-methoxyphenyl)pyridin-2-yl)-2-(pyridin-4-yl)propanamide] | – | 64 | – | 84 | – | 0.83
18 | COc1cc(F)ccc1-c1ccnc(NC(=O)C(C)c2ccncc2)c1 (stereo not shown) [Example 16, N-(4-(4-Fluoro-2-methoxyphenyl)pyridin-2-yl)-2-(pyridin-4-yl)propanamide] | 65 | 7 | – | – | – | 0.04
19 | COc1ccc(F)cc1-c1ccnc(NC(=O)C(C)c2cccs2)c1 (stereo not shown) [Example 17, N-(4-(5-Fluoro-2-methoxyphenyl)pyridin-2-yl)-2-(thiophen-2-yl)propanamide] | 114 | 97 | – | – | – | 0.88
20 | COc1ccc(F)cc1-c1ccnc(NC(=O)C(C)c2cccs2)c1 (stereo not shown) [Example 18, N-(4-(5-Fluoro-2-methoxyphenyl)pyridin-2-yl)-2-(thiophen-2-yl)propanamide] | 32 | 5 | – | – | – | 0.07
21 | COc1cc(F)ccc1-c1ccnc(NC(=O)Cc2ccnc(Cl)c2)c1 [Example 19, 2-(2-Chloropyridin-4-yl)-N-(4-(4-fluoro-2-methoxyphenyl)pyridin-2-yl)acetamide] | – | – | 6 | 49 | 9 | –
22 | COc1cc(F)ccc1-c1ccnc(NC(=O)Cc2ccc(N3CCN(C)CC3)cc2)c1 [Example 20, N-(4-(4-Fluoro-2-methoxyphenyl)pyridin-2-yl)-2-(4-(4-methylpiperazin-1-yl)phenyl)acetamide] | – | – | 8 | 39 | 5 | –
23 | COc1cc(F)ccc1-c1ccnc(NC(=O)CC(C)c2ccncc2)c1 (stereo not shown) [Example 21, N-(4-(4-Fluoro-2-methoxyphenyl)pyridin-2-yl)-3-(pyridin-4-yl)butanamide] | – | – | 82 | 88 | 29 | –
24 | COc1cc(F)ccc1-c1ccnc(NC(=O)C(C)Cc2ccncc2)c1 (stereo not shown) [Example 22, N-(4-(4-Fluoro-2-methoxyphenyl)pyridin-2-yl)-2-((pyridin-4-yl)methyl)-propanamide] | – | – | 98 | 93 | 39 | –

From patent US9067888B2, “Inhibitors of protein kinases” (Ingenium Pharmaceuticals GmbH, priority 2010, dated 2015)
